Assay results as given in patent publication US4666907A, “Phenothiazine and derivatives and analogs and use as leukotriene biosynthesis inhibitors” (Merck Frosst Canada, Inc., priority 1986, dated 1987).

How the values were obtained:
asthmatic rats = experiment: Asthmatic rat assay (duration of dyspnoea after egg albumin aerosol); assay type: in vivo; settings: po; for inhibition in vivo at 3 mg/kg: 3 mg/kg p.o.
Excerpt: Rats were obtained from an inbred line of asthmatic rats. Both female and male rats from 200 to 300 g were used.
Egg albumin (EA), grade V, crystallized and lyophilized, was obtained from Sigma Chemical Co., St. Louis. Bordetella pertussis vaccine, containing 30×10^9 killed bacteria per ml was obtained from the Institut Armand-Frappier, Laval des Rapides, Quebec. Aluminum hydroxide was obtained from the Regeis Chemical Company, Chicago.
The challenge and subsequent respiratory recordings were carried out in a clear plastic box with internal dimensions 10×6×4 inches. The top of the box was removable; in use, it was held firmly in place by four clamps and an airtight seal was maintained by a soft rubber gasket. […] A Fleisch No. 0000 pneumotachograph was inserted into one end of the box and coupled to a Grass volumetric pressure transducer (PT5-A) which was then connected to a Beckman Type R Dynograph through appropriate couplers. While aerosilizing the antigen, the outlets were open and the pneumotachograph was isolated from the chamber. The outlets were closed and the pneumotachograph and the chamber were connected during the recording or the respiratory patterns. For challenge, 2 ml of a 3% solution of antigen in saline was placed into each nebulizer and the aerosol was generated with air from a small Potter diaphragm pump operating at 10 psi and a flow of 8 liters/minutes.
Rats were sensitized by injection (s.c.) 1 ml of a suspension containing 1 mg EA and 200 mg aluminum hydroxide in saline. Simultaneously, they received an injection (i.p.) of 0.5 ml of B. pertussis vaccine. They were used between days 14 and 18 postsensitization. In order to eliminate the serotonin component of the response, rats were pretreated intravenously 5 minutes prior to aerosol challenge with […] methylserzide. Rats were then exposed to an aerosol of 3% EA in saline for exactly 1 minute, then their respiratory profiles were recorded for a further 25-30 minutes. The duration of continuous dyspnoea was measured from the respiratory recordings.
Compounds were generally administered either intraperitoneally 1 hour prior to challenge or orally 11/2 hours prior to challenge. They were either dissolved in dimethylsulfoxide or suspended in 0.1% methocel and 0.5% Tween 80. The volume injected has 2 ml kg^-1 (intraperitoneally) or 10 ml kg^-1 (orally). Prior to oral treatment rats were starved overnight. Their activity was determined in terms of their ability to decrease the duration of symptoms of dyspnoea in comparison with a group of vehicle-treated controls. Usually, a compound was evaluated at a series of doses and an ED50 was determined. This was defined as the dose (mg/kg) which would inhibit the duration of symptoms by 50%.

[1] = tested on: PAF-induced hyperalgesia in Sprague-Dawley rats; experiment: PAF-induced hyperalgesia assay (vocalization threshold, rat paw); assay type: in vivo; settings: po, read-out: PAF Induced Hyperalgesia Assay % inhibition; for responders at 1 mg/kg: 1 mg/kg p.o.; for responders at 3 mg/kg: 3 mg/kg p.o.
Description: Female Sprague-Dawley rats, 35-40 g were fasted overnight. Platelet activating factor, PAF, (L-lecithin B-acetyl O-alkyl) 1 μg/0.1 ml was given by subplantar injection in the rat paw. The compounds to be evaluated were homogenized in aqueous Vehicle (0.9% benzyl alcohol, 0.5% Tween 80 and 0.4% methylcellulose) and administered orally in a volume of 0.1 ml, 30 minutes prior to PAF.
Animals were tested 1, 2, 3 and 4 hours after PAF administration. The vocalization threshold, defined as the pressure (mm Hg) needed to evoke a squeak response, was recorded for both the injected and contralateral paw. No animal was subjected to pressure greater than 60 mm Hg. Hyperalgesia is defined as a decrease in vocalization threshold as compared to a normal paw. Percent inhibition of hyperalgesia was calculated as the proportion of animals with vocalization thresholds greater than 200% of controls.

SMILES	inhibition in vivo at 3 mg/kg (asthmatic rats)	responders at 1 mg/kg [1]	responders at 3 mg/kg [1]	further results
COc1ccc2c(c1)Sc1cc(C)ccc1N2C	58%	30%		
COc1ccc2c(c1)Sc1c(cc(OC)c(O)c1Br)N2C(=O)OC(C)OC(C)=O (stereo not drawn)			60%	inhibition in vivo at 5 mg/kg (asthmatic rats; 5.0 mg/kg p.o.): 42%
c1ccc2c(c1)Nc1ccccc1S2 [drawing 61]			50%	inhibition in vivo at 0.5 mg/kg (asthmatic rats; 0.5 mg/kg p.o.): 53%
COc1ccc2c(c1Cl)Sc1ccccc1N2C [drawing 64]				inhibition in vivo at 0.2 mg/kg (asthmatic rats; 0.2 mg/kg p.o.): 50%; responders at 0.016 mg/kg ([1]; 0.016 mg/kg p.o.): 50%
CC(C)C(=O)Oc1ccc2c(c1Cl)Sc1ccccc1N2C [drawing 66]	35%	70%		
COc1ccc2c(c1Cl)Sc1ccccc1N2C(C)=O [drawing 70]				inhibition in vivo at 1.5 mg/kg (asthmatic rats; 1.5 mg/kg p.o.): 59%; responders at 0.01 mg/kg ([1]; 0.01 mg/kg p.o.): 50%
